Laboratory results reported in US7737166B2, “Antifungal bicyclic hetero ring compounds” (Daiichi Sankyo Company, Limited, priority 2005, dated 2010).
In brackets after ≈: the same amount, converted by molar mass.

Columns and labels:
C. albicans ATCC90028 = test: Antifungal activity (GI80), growth inhibition in YPD20 medium by absorbance at 600 nm; type: cell-based; details: 37° C., absorbance 600 nm; for IC80: Candida albicans, ATCC90028, minimum concentration for at least 80% cell growth inhibition, read-out: GI80 (μg/ml) C. albicans ATCC90028; for GI80 (μg/ml) C. albicans ATCC90028: minimum concentration for at least 80% cell growth inhibition
Protocol: (§1) The antifungal activity of the compounds of the invention was determined according to the method mentioned below.
(§2) An YPD20 medium (1% yeast extract, 2% peptone, 20% glucose) was used,
(§3) (2) Preparation of Cell Liquid for Inoculation:
(§4) Cells incubated overnight with Sabouraud dextrose agar at 30° C. were suspended in 0.1% Tween 80-added saline, and then added to a concentrated medium (1.33% yeast extract, 2.67% peptone, 13.33% glucose) so that the final cell concentration could be 5×10^3 cells/ml, thereby preparing a cell liquid for inoculation.
(§5) (3) Production of Chemical Dilution Plate:
(§6) A metered sample was dissolved in dimethyl sulfoxide, and a 2-fold dilution series was prepared using dimethyl sulfoxide. A chemical dilution of 2 μl each was added to a flat-bottom 96-well plate with 40% glucose (48 μl) put in each well, thereby producing a chemical dilution plate.
(§7) (4) Inoculation and Cultivation of Cell Liquid:
(§8) The cell liquid (150 μl) prepared in (2) was added to the chemical dilution plate produced in (3), followed by aerobic static cultivation at 37° C.
(§9) (5) Determination of Antifungal Activity (GI80 Value):
(§10) After cultivation for […], the plate was stirred, and its absorbance (600 nm) was measured. Based on the absorbance as the index, the minimum chemical concentration for at least 80% cell growth inhibition relative to the cell growth in the chemical-free well was computed as a GI80 value.

C. glabrata ATCC48435 = test: as above; type: cell-based; details: 37° C., absorbance 600 nm; for IC80: Nakaseomyces glabratus, ATCC48435, minimum concentration for at least 80% cell growth inhibition, read-out: GI80 (μg/ml) C. glabrata ATCC48435; for GI80 (μg/ml) C. glabrata ATCC48435: minimum concentration for at least 80% cell growth inhibition
Protocol: as §1, §2, §3, §4, §5, §6, §7, §8, §9, §10

C. albicans ATCC MYA-573 = test: as above; type: cell-based; details: minimum concentration for at least 80% cell growth inhibition, 37° C., absorbance 600 nm; for IC80: Candida albicans, read-out: GI80 (μg/ml) C. albicans ATCC MYA-573
Protocol: as §1, §2, §3, §4, §5, §6, §7, §8, §9, §10

Question: For `Cc1c(Br)c(N2CC[C@H](N(C)C)C2)c2oc(C3CC3)nc2c1C#N`, which melting point is on record?
Answer: 82 to 86 °C

Question: Which melting point does the source give for `Cc1c(-c2ccccc2)c(N2CC[C@H](N(C)C)C2)c2oc(C(C)C)nc2c1C#N.Cl` here?
Answer: 168 to 170 °C (dec.)

Question: Which melting point does the source give for `Cc1c(-c2ccccc2)c(N2CC[C@H](N(C)C)C2)c2oc(N3CC(CC(=O)O)C3)nc2c1C#N` here?
Answer: 125 to 128 °C

Question: Which melting point does the source give for `Cc1c(-c2ccccc2)c(C2=CC(N(C)C)CC2)c2oc(C(C)(C)C)nc2c1C#N` (stereo not shown) [Example 3, 2-tert-Butyl-7-[3-(dimethylamino)cyclopent-1-en-1-yl]-5-methyl-6-phenyl-1,3-benzoxazole-4-carbonitrile] here?
Answer: 114 to 116 °C

Question: Which melting point does the source give for `Cc1c(-c2ccccc2)c(C2=CC(N(C)C)CC2)c2oc(C3CC3)nc2c1C#N` (stereo not shown) [Example 8, 2-Cyclopropyl-7-(3-dimethylaminocyclopent-1-en-1-yl)-5-methyl-6-phenyl-1,3-benzoxazole-4-carbonitrile] here?
Answer: 144 to 146 °C

Question: With `Cc1c(-c2ccccc2)c(N2CC(N(C)C)C2)c2oc(C(C)(C)C)nc2c1C#N` [Example 15, 2-Tert-butyl-5-methyl-7-(3-dimethylaminoazetidin-1-yl)-6-phenyl-1,3-benzoxazole-4-carbonitrile] as the compound, how does the melting point read?
Answer: 211 to 212 °C

Question: For `Cc1c(-c2ccco2)c(N2CC[C@H](N(C)C)C2)c2oc(C3CC3)nc2c1C#N` [Example 18, 2-Cyclopropyl-7-[(3S)-3-(dimethylamino)pyrrolidin-1-yl]-6-(2-furyl)-5-methyl-1,3-benzoxazole-4-carbonitrile], which melting point is on record?
Answer: 158 to 159 °C

Question: With `Cc1c(-c2ccccn2)c(N2CC[C@H](N(C)C)C2)c2oc(C3CC3)nc2c1C#N` [Example 20, 2-Cyclopropyl-7-[(3S)-3-(dimethylamino)pyrrolidin-1-yl]-5-methyl-6-(pyridin-2-yl)-1,3-benzoxazole-4-carbonitrile] as the compound, how does the melting point read?
Answer: 150 to 151 °C

Question: With `Cc1c(-c2cnccn2)c(N2CC[C@H](N(C)C)C2)c2oc(C3CC3)nc2c1C#N` [Example 21, 2-Cyclopropyl-7-[(3S)-3-(dimethylamino)pyrrolidin-1-yl]-5-methyl-6-(pyrazin-2-yl)-1,3-benzoxazole-4-carbonitrile] as the compound, how does the melting point read?
Answer: 157 to 159 °C

Question: Which melting point does the source give for `CC(=O)c1c(C)c(C#N)c2nc(C3CC3)oc2c1N1CC[C@H](N(C)C)C1` [Example 26, 6-Acetyl-2-cyclopropyl-7-[(3S)-3-(dimethylamino)pyrrolidin-1-yl]-5-methyl-1,3-benzoxazole-4-carbonitrile] here?
Answer: 142 °C

Question: With `CNC(=O)c1nc2c(C#N)c(C)c(-c3ccccc3)c(N3CC[C@H](N(C)C)C3)c2o1` [Example 39, 4-Cyano-7-[(3S)-3-(dimethylamino)pyrrolidin-1-yl]-N,5-dimethyl-6-phenyl-1,3-benzoxazole-2-carboxamide] as the compound, how does the melting point read?
Answer: 214 to 216 °C

Question: For `Cc1c(-c2ccccc2)c(N2CC[C@@H](N(C)C)C2)c2oc(C(=O)N(C)C)nc2c1C#N` [Example 40-2, 4-Cyano-N,N,5-trimethyl-7-[(3R)-3-(dimethylamino)pyrrolidin-1-yl]-6-phenyl-1,3-benzoxazole-2-carboxamide], which melting point is on record?
Answer: 67 to 70 °C

Question: For `CN[C@@H]1CCN(c2c(-c3ccccc3)c(C)c(C#N)c3nc(C(=O)N(C)C)oc23)C1` [Example 40-3, 4-Cyano-N,N,5-trimethyl-7-[(3R)-3-(methylamino)pyrrolidin-1-yl]-6-phenyl-1,3-benzoxazole-2-carboxamide], which melting point is on record?
Answer: 145 to 148 °C

Question: For `Cc1cc2c(c(N3CC[C@H](N(C)C)C3)c1-c1ccccc1)OC(C#N)(C(=O)N1CCCCC1)N2` (stereo partly drawn) [Example 43, 7-[(3S)-3-(dimethylamino)pyrrolidin-1-yl]-5-methyl-6-phenyl-2-(piperidin-1-ylcarbonyl)-1,3-benzoxazole-2-carbonitrile], which melting point is on record?
Answer: 170 to 173 °C

Question: Which melting point does the source give for `Cc1c(-c2ccccc2)c(N2CC[C@H](N(C)C)C2)c2oc(C(=O)N(C)CCc3ccccc3)nc2c1C#N` [Example 46, 4-Cyano-7-[(3S)-3-(dimethylamino)pyrrolidin-1-yl]-N,5-dimethyl-6-phenyl-N-(2-phenylethyl)-1,3-benzoxazole-2-carboxamide] here?
Answer: 138 to 141 °C

Question: For `Cc1c(-c2ccccc2)c(N2CC[C@H](N(C)C)C2)c2oc(N3CC(O)C3)nc2c1C#N` [Example 65, 7-[(3S)-3-(Dimethylamino)pyrrolidin-1-yl]-2-(3-hydroxyazetidin-1-yl)-5-methyl-6-phenyl-1,3-benzoxazole-4-carbonitrile], which melting point is on record?
Answer: 219 to 221 °C

Question: For `Cc1c(-c2ccccc2)c(N2CC[C@H](N(C)C)C2)c2oc(-c3cnn(C)c3)nc2c1C#N` [Example 74, 7-[(3S)-3-(Dimethylamino)pyrrolidin-1-yl]-5-methyl-2-(1-methyl-1H-pyrazol-4-yl)-6-phenyl-1,3-benzoxazole-4-carbonitrile], which melting point is on record?
Answer: 214 to 222 °C

Question: Which melting point does the source give for `Cc1c(-c2ccccc2)c(N2CC[C@H](N(C)C)C2)c2oc(N3CC(C)(O)C3)nc2c1C#N` [Example 99, 7-[(3S)-3-(Dimethylamino)-1-pyrrolidinyl]-2-(3-hydroxy-3-methylazetidin-1-yl)-5-methyl-6-phenyl-1,3-benzoxazole-4-carbonitrile] here?
Answer: 167 to 169 °C

Question: For `Cc1c(-c2ccccc2)c(N2CC[C@H](N(C)C)C2)c2oc(-c3ccccc3N)nc2c1C#N` [Example 109, 2-(2-Aminophenyl)7-[(3S)-3-(dimethylamino)pyrrolidin-1-yl]-5-methyl-6-phenyl-1,3-benzoxazole-4-carbonitrile], which melting point is on record?
Answer: 259 to 263 °C

Question: What does the source list for `CN[C@H]1CCN(c2c(-c3cccs3)c(C)c(C#N)c3nc(C(=O)N(C)C)oc23)C1` [Example 145, 4-Cyano-N,N,5-trimethyl-7-[(3S)-3-(methylamino)pyrrolidin-1-yl]-6-(thiophen-2-yl)-1,3-benzoxazole-2-carboxamide]?
Answer: IC80 (C. albicans ATCC90028): 0.5 µg/mL (≈ 1.22 µM); IC80 (C. glabrata ATCC48435): 0.125 µg/mL (≈ 0.305 µM); IC80 (C. albicans ATCC MYA-573): 0.5 µg/mL (≈ 1.22 µM)

Question: Which IC80 (C. albicans ATCC90028) does the source give for `CN[C@H]1CCN(c2c(-c3cccc(Cl)c3)c(C)c(C#N)c3nc(C(=O)N(C)C)oc23)C1` [Example 146, 6-(3-Chlorophenyl)-4-cyano-N,N,5-trimethyl-7-[(3S)-3-(methylamino)pyrrolidin-1-yl]-1,3-benzoxazole-2-carboxamide] here?
Answer: 0.125 µg/mL (≈ 0.285 µM)

Question: And the IC80 (C. glabrata ATCC48435)?
Answer: 0.125 µg/mL (≈ 0.285 µM)

Question: And the IC80 (C. albicans ATCC MYA-573)?
Answer: 0.25 µg/mL (≈ 0.571 µM)

Question: Which results are given for `CN[C@H]1CCN(c2c(-c3cccc(C)c3)c(C)c(C#N)c3nc(C(=O)N(C)C)oc23)C1` [Example 146-2, 4-Cyano-N,N,5-trimethyl-7-[(3S)-3-(methylamino)pyrrolidin-1-yl]-6-(3-methylphenyl)-1,3-benzoxazole-2-carboxamide]?
Answer: IC80 (C. albicans ATCC90028): 0.125 µg/mL (≈ 0.299 µM); IC80 (C. glabrata ATCC48435): 0.063 µg/mL (≈ 0.151 µM); IC80 (C. albicans ATCC MYA-573): 0.25 µg/mL (≈ 0.599 µM)

Question: With `Cc1c(-n2cccc2)c(N2CC[C@H](N(C)C)C2)c2oc(C3CC3)nc2c1C#N` [Example 151, 2-Cyclopropyl-7-[(3S)-3-(dimethylamino)pyrrolidin-1-yl]-5-methyl-6-(pyrrol-1-yl)-1,3-benzoxazole-4-carbonitrile] as the compound, how does the IC80 (C. albicans ATCC90028) read?
Answer: 2 µg/mL (≈ 5.33 µM)

Question: What about the IC80 (C. glabrata ATCC48435) of the same compound?
Answer: 0.25 µg/mL (≈ 0.666 µM)

Question: And the IC80 (C. albicans ATCC MYA-573)?
Answer: 1 µg/mL (≈ 2.66 µM)

Question: With `Cc1c(-c2ccccc2)c(N2CCC[C@H]2CN(C)C)c2oc(C3CC3)nc2c1C#N` [Example 154, 2-Cyclopropyl-7-{(2S)-2-[(dimethylamino)methyl]pyrrolidin-1-yl}-5-methyl-6-phenyl-1,3-benzoxazole-4-carbonitrile] as the compound, how does the IC80 (C. albicans ATCC90028) read?
Answer: 1 µg/mL (≈ 2.5 µM)

Question: What about the IC80 (C. glabrata ATCC48435) of the same compound?
Answer: 0.25 µg/mL (≈ 0.624 µM)

Question: What about the IC80 (C. albicans ATCC MYA-573) of the same compound?
Answer: 1 µg/mL (≈ 2.5 µM)

Question: For `CNC[C@H]1CCN1c1c(-c2ccccc2)c(C)c(C#N)c2nc(C(=O)N(C)C)oc12` [Example 155], which “GI80 (μg/ml) C. albicans ATCC90028” value (C. albicans ATCC90028) is on record?
Answer: 0.5 µg/mL (≈ 1.24 µM)

Question: And the “GI80 (μg/ml) C. glabrata ATCC48435” value (C. glabrata ATCC48435)?
Answer: 0.125 µg/mL (≈ 0.31 µM)

Question: And the “GI80 (μg/ml) C. albicans ATCC MYA-573” value (C. albicans ATCC MYA-573)?
Answer: 2 µg/mL (≈ 4.96 µM)

Question: For `CNC1=CC(c2c(-c3ccccc3)c(C)c(C#N)c3nc(C(=O)N(C)C)oc23)CC1` (stereo not shown) [Example 156-1, 4-Cyano-N,N,5-trimethyl-7-[3-(methylamino)cyclopent-2-enyl]-6-phenyl-1,3-benzoxazole-2-carboxamide], which IC80 (C. albicans ATCC90028) is on record?
Answer: 0.25 µg/mL (≈ 0.624 µM)

Question: And the IC80 (C. glabrata ATCC48435)?
Answer: 0.063 µg/mL (≈ 0.157 µM)

Question: What about the IC80 (C. albicans ATCC MYA-573) of the same compound?
Answer: 0.25 µg/mL (≈ 0.624 µM)

Question: What does the source list for `CN[C@H]1CCN(c2c(-c3csc(C)n3)c(C)c(C#N)c3nc(C(=O)N(C)C)oc23)C1` [Example 158, 4-Cyano-N,N,5-trimethyl-7-[(3S)-3-(methylamino)pyrrolidin-1-yl]-6-(2-methyl-1,3-thiazol-4-yl)-1,3-benzoxazole-2-carboxamide]?
Answer: GI80 (μg/ml) C. albicans ATCC90028 (C. albicans ATCC90028): 0.5 µg/mL (≈ 1.18 µM); GI80 (μg/ml) C. glabrata ATCC48435 (C. glabrata ATCC48435): 0.25 µg/mL (≈ 0.589 µM); GI80 (μg/ml) C. albicans ATCC MYA-573 (C. albicans ATCC MYA-573): 2 µg/mL (≈ 4.71 µM)

Question: Which IC80 (C. albicans ATCC90028) does the source give for `OC(Cn1cncn1)(Cn1cncn1)c1ccc(F)cc1F` [FCZ, Fluconazole, reference compound] here?
Answer: 0.25 µg/mL (≈ 0.816 µM)

Question: And the IC80 (C. glabrata ATCC48435)?
Answer: > 4 µg/mL

Question: What about the IC80 (C. albicans ATCC MYA-573) of the same compound?
Answer: > 4 µg/mL

Question: With `CCC(C)n1ncn(-c2ccc(N3CCN(c4ccc(OCC5COC(Cn6cncn6)(c6ccc(Cl)cc6Cl)O5)cc4)CC3)cc2)c1=O` (stereo not shown) [ITZ, Itraconazole, reference compound] as the compound, how does the “GI80 (μg/ml) C. albicans ATCC90028” value (C. albicans ATCC90028) read?
Answer: <0.016 µg/mL

Question: What about the “GI80 (μg/ml) C. glabrata ATCC48435” value (C. glabrata ATCC48435) of the same compound?
Answer: 0.25 µg/mL (≈ 0.354 µM)

Question: What about the “GI80 (μg/ml) C. albicans ATCC MYA-573” value (C. albicans ATCC MYA-573) of the same compound?
Answer: 0.125 µg/mL (≈ 0.177 µM)
